For nine compounds, IC50, inhibition and Activity results are on record in ChEMBL document CHEMBL5579792, “Natural products fragment-based design and synthesis of a novel pentacyclic ring system as potential MAPK inhibitor” (Bioorg Med Chem Lett, 2024).

The IC50 is the midpoint of a concentration-inhibition curve. Broadly, the inhibition is the share of the control response that was lost under treatment. Low values mean a weak effect, high ones a strong effect.

The test system of experiment [1] is A549. Put plainly: Antiproliferative activity against human A549 cells assessed as inhibition of cell growth by MTT assay. The experiment is classed as functional, cell-based.
The subject of a further experiment is HCT-116. The experiment is described as follows: Antiproliferative activity against human HCT-116 cells assessed as inhibition of cell growth by MTT assay. The experiment is classed as functional, cell-based.
Another experiment relates to MDA-MB-231. The experiment is described as follows: Antiproliferative activity against human MDA-MB-231 cells assessed as inhibition of cell growth by MTT assay. The experiment is classed as functional, cell-based. (In general: Tetrazolium dyes change colour on reduction, which living cells bring about.)
The test system of experiment [2] is A549. The experiment is described as follows: Inhibition of cell migration in human A549 cells at 0.22 uM measured after 48 hrs by scratch assay relative to control. The format is functional.
In experiment [3] the test system is A549. Put plainly: Induction of apoptosis in human A549 cells assessed as live cells at 0.22 uM incubated for 48 hrs by Annexin V/PI staining based flow cytometry analysis (reference value: 90.7%). The experiment is classed as functional.
Experiment [4] deals with A549. The experiment is described as follows: Induction of apoptosis in human A549 cells assessed as increase in BAX protein expression at 0 to 0.34 uM measured after 48 hrs by Western blot analysis. The format is functional, cell-based. Particulars: dose 0-0.34 µM. In general terms: Immunoblotting shows a protein as a band on a membrane.
Experiment [5] has as its system A549. Put plainly: Induction of cell cycle arrest in human A549 cells assessed as accumulation at S phase at 0.11 uM incubated for 48 hrs by PI staining based flow cytometry analysis (reference value: 12.105%). The experiment is classed as functional. (Flow cytometry measures light scatter and fluorescence of single cells or particles in a stream.)
Experiment [6] deals with A549. Put plainly: Inhibition of cell migration in human A549 cells at 0.34 uM measured after 24 hrs by scratch assay relative to control. The format is functional.
The subject of experiment [7] is A549. Put plainly: Induction of cell cycle arrest in human A549 cells assessed as accumulation at S phase at 0.34 uM incubated for 48 hrs by PI staining based flow cytometry analysis (reference value: 12.105%). The experiment is classed as functional.
Experiment [8] deals with A549. The experiment is described as follows: Downregulation of phosphorylated ERK/ERK protein expression in human A549 cells at 0.11 to 0.34 uM measured after 48 hrs by Western blot analysis. The format is functional, cell-based. The settings on record: dose 0.11-0.34 µM.
The subject of experiment [9] is A549. Put plainly: Induction of apoptosis in human A549 cells assessed as late apoptotic cells at 0.11 uM incubated for 48 hrs by Annexin V/PI staining based flow cytometry analysis (reference value: 2.96%). The experiment is classed as functional.
The test system of experiment [10] is A549. Put plainly: Induction of apoptosis in human A549 cells assessed as dead cells at 0.22 uM incubated for 48 hrs by Annexin V/PI staining based flow cytometry analysis (reference value: 4.58%). The experiment is classed as functional.
In experiment [11] the test system is A549. The experiment is described as follows: Induction of cell cycle arrest in human A549 cells assessed as accumulation at G2/M phase at 0.22 uM incubated for 48 hrs by PI staining based flow cytometry analysis (reference value: 1.14%). The format is functional.
The test system of experiment [12] is A549. The experiment is described as follows: Antiproliferative activity against human A549 cells assessed as inhibition of cell growth measured after 24 hrs by MTT assay. The experiment is classed as functional, cell-based. Particulars: A549, 24 h.
Experiment [13] deals with A549. The experiment is described as follows: Inhibition of cell migration in human A549 cells at 0.22 uM measured after 24 hrs by scratch assay relative to control. The experiment is classed as functional.
Experiment [14] concerns A549. Put plainly: Antiproliferative activity against human A549 cells assessed as inhibition of cell growth measured after 72 hrs by MTT assay. The format is functional, cell-based. The settings on record: A549, 72 h.
In experiment [15] the test system is A549. Put plainly: Induction of cell cycle arrest in human A549 cells assessed as accumulation at G2/M phase at 0.11 uM incubated for 48 hrs PI staining based by flow cytometry analysis (reference value: 1.14%). The format is functional.
Experiment [16] concerns A549. The experiment is described as follows: Induction of cell cycle arrest in human A549 cells assessed as accumulation at G2/M phase at 0.34 uM incubated for 48 hrs by PI staining based flow cytometry analysis (reference value: 1.14%). The format is functional.
The subject of experiment [17] is A549. The experiment is described as follows: Induction of apoptosis in human A549 cells assessed as late apoptotic cells at 0.22 uM incubated for 48 hrs by Annexin V/PI staining based flow cytometry analysis (reference value: 2.96%). The experiment is classed as functional.
The subject of experiment [18] is A549. Put plainly: Inhibition of cell migration in human A549 cells at 0.11 uM measured after 24 hrs by scratch assay relative to control. The format is functional.
Experiment [19] concerns A549. The experiment is described as follows: Induction of apoptosis in human A549 cells assessed as early apoptotic cells at 0.34 uM incubated for 48 hrs by Annexin V/PI staining based flow cytometry analysis (reference value: 1.79%). The experiment is classed as functional.
In experiment [20] the test system is A549. The experiment is described as follows: Induction of cell cycle arrest in human A549 cells assessed as accumulation at S phase at 0.22 uM incubated for 48 hrs by PI staining based flow cytometry analysis (reference value: 12.105%). The format is functional.
Experiment [21] deals with A549. The experiment is described as follows: Induction of apoptosis in human A549 cells assessed as live cells at 0.11 uM incubated for 48 hrs by Annexin V/PI staining based flow cytometry analysis (reference value: 90.7%). The format is functional.
For experiment [22], the system named is A549. The experiment is described as follows: Induction of apoptosis in human A549 cells assessed as late apoptotic cells at 0.34 uM incubated for 48 hrs by Annexin V/PI staining based flow cytometry analysis (reference value: 2.96%). The format is functional.
Experiment [23] relates to A549. Put plainly: Induction of cell cycle arrest in human A549 cells assessed as accumulation at G0/G1 phase at 0.22 uM incubated for 48 hrs by PI staining based flow cytometry analysis (reference value: 84.47%). The format is functional.
Experiment [24] deals with A549. Put plainly: Induction of apoptosis in human A549 cells assessed as early apoptotic cells at 0.22 uM incubated for 48 hrs by Annexin V/PI staining based flow cytometry analysis (reference value: 1.79%). The experiment is classed as functional.
The subject of experiment [25] is A549. The experiment is described as follows: Induction of apoptosis in human A549 cells assessed as dead cells at 0.34 uM incubated for 48 hrs by Annexin V/PI staining based flow cytometry analysis (reference value: 4.58%). The experiment is classed as functional.
The subject of experiment [26] is A549. The experiment is described as follows: Induction of cell cycle arrest in human A549 cells assessed as accumulation at G0/G1 phase at 0.11 uM incubated for 48 hrs by PI staining based flow cytometry analysis (reference value: 84.47%). The format is functional.
Experiment [27] has as its system A549. The experiment is described as follows: Inhibition of cell migration in human A549 cells at 0.11 uM measured after 48 hrs by scratch assay relative to control. The format is functional.
Experiment [28] relates to A549. Put plainly: Induction of apoptosis in human A549 cells assessed as increase in caspase-3 protein expression at 0 to 0.34 uM measured after 48 hrs by Western blot analysis. The format is functional, cell-based. The settings on record: dose 0-0.34 µM.
The subject of experiment [29] is A549. The experiment is described as follows: Downregulation of phosphorylated JNK/JNK protein expression in human A549 cells at 0.11 to 0.34 uM measured after 48 hrs by Western blot analysis. The settings on record: dose 0.11-0.34 µM. The experiment is classed as functional, cell-based.
For experiment [30], the system named is A549. Put plainly: Inhibition of cell migration in human A549 cells at 0.34 uM measured after 48 hrs by scratch assay relative to control. The experiment is classed as functional.
Experiment [31] concerns A549. Put plainly: Upregulation of phosphorylated p38/p38 protein expression in human A549 cells at 0.11 to 0.34 uM measured after 48 hrs by Western blot analysis. The format is functional, cell-based. Particulars: dose 0.11-0.34 µM.
The test system of experiment [32] is A549. The experiment is described as follows: Induction of apoptosis in human A549 cells assessed as live cells at 0.34 uM incubated for 48 hrs by Annexin V/PI staining based flow cytometry analysis (reference value: 90.7%). The format is functional.
The subject of experiment [33] is A549. The experiment is described as follows: Induction of apoptosis in human A549 cells assessed as reduction in Bcl-2 protein expression at 0 to 0.34 uM measured after 48 hrs by Western blot analysis. Particulars: dose 0-0.34 µM. The experiment is classed as functional, cell-based.
The subject of experiment [34] is A549. Put plainly: Antiproliferative activity against human A549 cells assessed as inhibition of cell growth measured after 48 hrs by MTT assay. The experiment is classed as functional, cell-based. The settings on record: A549, 48 h.
Experiment [35] deals with A549. Put plainly: Induction of apoptosis in human A549 cells assessed as early apoptotic cells at 0.11 uM incubated for 48 hrs by Annexin V/PI staining based flow cytometry analysis (reference value: 1.79%). The experiment is classed as functional.
Experiment [36] relates to A549. The experiment is described as follows: Induction of cell cycle arrest in human A549 cells assessed as accumulation at G0/G1 phase at 0.34 uM incubated for 48 hrs by PI staining based flow cytometry analysis (reference value: 84.47%). The experiment is classed as functional.
The test system of experiment [37] is A549. The experiment is described as follows: Induction of apoptosis in human A549 cells assessed as dead cells at 0.11 uM incubated for 48 hrs by Annexin V/PI staining based flow cytometry analysis (reference value: 4.58%). The format is functional.

Active and inactive are the calls of the source. The calls are words filed in the database; no cut-off is given here. Where only a bound is given, the exact number is not on record here.

Regarding `O=C1c2cc(F)ccc2-n2c1nc1nc3ccccc3cc1c2=O`, the IC50 with A549 [1] was found to be 6.45 µM; with HCT-116 it was 15 µM; in the experiment on MDA-MB-231 it was 10.1 µM.
The like results for `N/N=C1\c2ccccc2-n2c1nc1nc3ccccc3cc1c2=O` were, in that order, over 100 µM, over 100 µM and over 100 µM.
The like results for `O=C1c2c(ccc(F)c2Cl)-n2c1nc1nc3ccccc3cc1c2=O` were, in that order, 0.53 µM, 0.33 µM and 10.3 µM.
The like results for `O=C1c2ccccc2-n2c1nc1cc3ccccc3cc1c2=O` [BENZO[K]TRYPTANTHRIN] were, in that order, 10.3 µM, 13.5 µM and 17.6 µM.
In the case of `O=C1c2ccccc2-n2c1nc1nc3ccccc3cc1c2=O`, the inhibition at 0.22 µM with A549 [2] is 56%; in the experiment with A549 [13], 31%. Besides, the Activity with A549 [3] stood at 66.9%; in the experiment with A549 [5], 22.63%; in the experiment with A549 [7] it was 29.02%; in the experiment on A549 [9] it was 17.4%; with A549 [10] it was 6.65%; in the experiment with A549 [11], 8.87%. Further, the Activity in the experiment on A549 [15] amounted to 5.59%; with A549 [16], 9.58%; in the experiment with A549 [17], 18%; in the experiment on A549 [19], 7.39%; with A549 [20], 25.65%; with A549 [21], 67.5%. Besides, the Activity was determined as 19.9% in the experiment with A549 [22]; 62.47% in the experiment on A549 [23]; 8.47% in the experiment with A549 [24]; 9.32% in the experiment on A549 [25]; 72.8% with A549 [26]; 63.4% in the experiment with A549 [32]. Further, the Activity in the experiment on A549 [35] came to 7.83%; with A549 [36] it was 60.39%; with A549 [37] it was 7.17%. For the same compound, the result with A549 [4], with A549 [8], with A549 [28], in the experiment with A549 [29], with A549 [31] and in the experiment with A549 [33] was Active. Also, the results for the inhibition at 0.34 µM in the experiment with A549 [6] and with A549 [30] were 38% and 60%, respectively. Also, the IC50 in the experiment with A549 [1] amounted to 0.34 µM; in the experiment with HCT-116 it was 25.2 µM; in the experiment with A549 [12] it was 0.43 µM; in the experiment with A549 [14], 0.25 µM; in the experiment with MDA-MB-231, 3.54 µM; in the experiment on A549 [34], 0.34 µM. Besides, the values for the inhibition at 0.11 µM with A549 [18] and in the experiment with A549 [27] were 22% and 50%, respectively.
As to `CC[C@@]1(O)C(=O)OCc2c1cc1n(c2=O)Cc2cc3ccccc3nc2-1` [CAMPTOTHECIN], in the experiment with A549 [1], the concentration for half-maximal inhibition (IC50) was 0.39 µM.
With `O=c1c2cc3ccccc3nc2nc2n1-c1ccccc1/C2=N\O`, the IC50 in the experiment on A549 [1], in the experiment with HCT-116 and in the experiment on MDA-MB-231 was over 100 µM in each case.
As for `Cc1ccc2c(c1Cl)C(=O)c1nc3nc4ccccc4cc3c(=O)n1-2`, the IC50 in the experiment with A549 [1] is 35.1 µM; with HCT-116, 43.2 µM; with MDA-MB-231, 1.95 µM.
The like results for `O=C1c2cc(F)c(Cl)cc2-n2c1nc1nc3ccccc3cc1c2=O` were, in that order, 0.43 µM, 0.4 µM and 10.1 µM.
